Results published in patent US4021556A, “Xanthine oxidase inhibitors” (ICN Pharmaceuticals, Inc., priority 1975, dated 1977).

What was measured:
[1] = molecular target: T1, purified milk xanthine oxidase (Bos taurus, UniProt P80457); test: Xanthine oxidase inhibition, spectrophotometric at 290 nm; format: biochemical; conditions: for relative activity (α) compared to allopurinol: ratio to allopurinol (allopurinol = 1); for IC50: xanthine substrate 0.013 micromoles in 3.0 ml, tris HCl buffer pH 7.50, 25° C, unit taken, none in table
T1 construct: purchased Worthington Biochemical Corporation
T1 sequence (P80457 whole entry): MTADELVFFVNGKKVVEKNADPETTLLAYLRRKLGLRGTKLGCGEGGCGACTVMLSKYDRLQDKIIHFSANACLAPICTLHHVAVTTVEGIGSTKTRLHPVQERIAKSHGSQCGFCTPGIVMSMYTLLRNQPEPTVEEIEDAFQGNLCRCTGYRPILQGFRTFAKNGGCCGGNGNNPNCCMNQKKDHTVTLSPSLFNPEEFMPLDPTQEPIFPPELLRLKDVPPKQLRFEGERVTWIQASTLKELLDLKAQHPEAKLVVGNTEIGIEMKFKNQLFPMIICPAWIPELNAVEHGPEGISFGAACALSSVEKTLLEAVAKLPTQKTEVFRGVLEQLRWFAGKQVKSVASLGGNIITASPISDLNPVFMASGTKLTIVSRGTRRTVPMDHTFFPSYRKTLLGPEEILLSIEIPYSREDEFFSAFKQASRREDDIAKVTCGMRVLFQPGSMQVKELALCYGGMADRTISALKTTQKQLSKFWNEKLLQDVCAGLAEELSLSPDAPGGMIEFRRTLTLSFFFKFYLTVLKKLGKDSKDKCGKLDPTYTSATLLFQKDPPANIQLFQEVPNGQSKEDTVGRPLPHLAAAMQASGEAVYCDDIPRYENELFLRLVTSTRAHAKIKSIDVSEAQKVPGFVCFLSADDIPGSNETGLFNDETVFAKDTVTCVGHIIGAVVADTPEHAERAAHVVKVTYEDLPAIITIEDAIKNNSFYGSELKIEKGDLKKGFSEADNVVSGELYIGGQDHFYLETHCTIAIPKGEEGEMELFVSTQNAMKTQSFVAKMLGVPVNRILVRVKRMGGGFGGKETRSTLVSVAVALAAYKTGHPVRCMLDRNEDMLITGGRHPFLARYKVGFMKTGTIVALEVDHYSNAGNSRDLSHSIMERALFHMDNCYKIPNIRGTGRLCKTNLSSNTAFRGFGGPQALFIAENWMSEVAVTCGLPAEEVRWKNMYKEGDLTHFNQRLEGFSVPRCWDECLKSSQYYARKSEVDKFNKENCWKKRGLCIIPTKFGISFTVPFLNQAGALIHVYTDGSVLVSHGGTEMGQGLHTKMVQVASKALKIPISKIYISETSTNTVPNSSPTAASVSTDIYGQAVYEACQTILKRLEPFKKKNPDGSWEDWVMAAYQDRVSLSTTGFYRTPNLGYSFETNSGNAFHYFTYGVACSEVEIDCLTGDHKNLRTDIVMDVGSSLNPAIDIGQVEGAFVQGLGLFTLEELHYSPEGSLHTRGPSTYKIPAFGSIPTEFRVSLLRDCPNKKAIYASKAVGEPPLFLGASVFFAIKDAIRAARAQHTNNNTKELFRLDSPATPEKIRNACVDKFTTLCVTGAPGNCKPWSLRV
Description: In this example, the inhibitory activity of the compounds of the invention was determined by recording spectral changes at a constant wavelength of 290 nm, using a Cary Model 15 recording spectrophotometer equipped with a 0-0.1 O.D. slidewire. […] After dissolving in DMSO, the compounds were introduced into the incubation mixture containing 150 micromoles of tris HCl buffer (pH 7.50), 0.6 micromoles EDTA, 0.013 micromoles xanthine, and 20 to 40 micrograms of xanthine oxidase in a final volume of 3.0 milliliters. […] The assay was carried out by mixing all the components in a cuvette at 25° C. The reaction was started by the addition of the enzyme with the aid of a stirrer-adder. Changes in O.D. were measured for several minutes, and the rate (O.D. per minute) was calculated from the spectral change over the first 15 seconds.

[2] = cited from earlier work
[3] = dose killing 50% of a group of animals in two weeks, injected into the intraparietal cavity; 20160 min; cited from earlier work
xanthine oxidase = conditions: metabolite of allopurinol; cited from earlier work

Row | relative activity (α) compared to allopurinol [1] | Compound | other results
1 | 50 | Cc1cccc(-c2cnn3c(O)ccnc23)c1 [Compound (10), 3-(m-tolyl)pyrazolo[1,5a]pyrimidin-7-ol] | IC50 [1]: 100 nM
2 | 52 | 3-phenyl pyrazolo[1,5,a]pyrimidine-5,7-diol [Compound (1)] | 
3 | 116 | 3-(m-tolyl)pyrazolo[1,5,a]pyrimidine-5,7-diol [(2)] | 
4 | 151 | 3-(p-tolyl)pyrazolo[1,5,a]pyrimidine-5,7-diol [(3)] | 
5 | 33 | Oc1ccnc2c(-c3ccccc3)cnn12 [Compound (11), 3-phenylpyrazolo[1,5a]pyrimidine-7-ol] | IC50 [1]: 150 nM

More lines, now with the values behind:

Row | Compound | relative activity (α) compared to allopurinol [1] | other results
6 | 3-(p-bromophenyl)pyrazolo[1,5,a]pyramidine-5,7-diol [Compound (4)] | 56 | 
7 | 3-(p-acetamidophenyl)pyrazolo[1,5,a]pyrimidine-5,7-diol [(6)] | 200 | 
8 | 3-(3'-pyridyl)pyrazolo[1,5,a]pyrimidine-5,7-diol [(8)] | 116 | 
9 | 3-(p-chlorophenyl)pyrazolo[1,5,a]pyrimidine-5,7-diol [(5)] | 131 | 
10 | Oc1ncnc2[nH]ncc12 [Allopurinol, allopurinol] |  | metabolism in vivo [2]: gradually metabolized in vivo to 4,6-dihydroxy pyrazolo[3,4-d]pyrimidine; LD50 [3]: about 150 milligrams per kilogram of body weight
11 | 3-(1'-naphthyl)pyrazolo[1,5,a]pyrimidine-5,7-diol [Compound (9)] | 20 | 
12 | Oc1nc(O)c2cn[nH]c2n1 [4,6-dihydroxy pyrazolo[3,4-d]pyrimidine] |  | inhibitor effectiveness compared with allopurinol (xanthine oxidase): not as effective an inhibitor as is allopurinol
13 | 3-piperonylpyrazolo[1,5,a]pyrimidine-5,7-diol [(7)] | 172 | 
